According to patent US20080255206A1, “Rxr Agonists and Antagonists, Alone or in Combination with Ppar Ligands, in the Treatment of Metabolic and Cardiovascular Diseases” (priority 2005, published 2008):

How the values were obtained:
[1] = tested on: myeloperoxidase (MPO) activity; experiment: Semi chronic inflammation of mouse ears, MPO activity; type: in vivo, C57BL/6 mice; conditions: 11 d
Procedure: (§1) […] mice of the C57BL/6 strain are used. Inflammation is induced on mouse ears with either AtRA, 9-cis RA or TPA by topical application. Inflammation is measured objectively by determination of the activity of myeloperoxidase (MPO) being directly correlated to the infiltration of polymorphonuclear white blood cells and by the determination of mRNA expression of c-jun, a protein implicated in the AP-1 transduction pathway according to known methods, see e.g. P. L. Stanley et al., Skin Pharmacol. 4, 262-271 (1991) (MPO assay), N. Basset-Sequin et al., J. Invest. Dermatol. 94, 418-422 (1990), F. J. Rauscher et al., Cell 52, 471-480 […], P. Sassone-Corn et al., Nature 326, 507-510 (1987), and M. Pfahl, Endocr. Rev. 14, 651-658, 1993, which are incorporated by reference regarding the experimental method.
(§2) In the “acute inflammation” test, mice are treated topically (epicutaneously), orally or intraperitoneally, daily for 4 days. In the “semi chronic inflammation” test, mice are treated topically according to the schedules given below. For each experiment, a group of at least 4 mice of both sexes are used in the defined condition, regarding placebo, vehicle control, compound, topical formulation, oral formulation, dosage and concentration. The topical vehicle consists of ethanol/PEG 400/water (3:1:1).
(§3) The anti-inflammatory effect of topical RXR antagonists is tested by determination of myeloperoxidase activity in % of vehicle controls. The effect of the RXR antagonist compound 15 is also compared with the well known anti-inflammatory effect of the two corticosteroids, clobetasol dipropionate and betamethasone propionate. For induction of inflammation, AtRA and TPA are applied topically to the skin and the administration of the test compounds, the RXR antagonist compound 15 and the two corticosteroids are given in the following order, according to the schedule, described in: Skin Pharmacol 1991; 4 (4): 262-271, Stanley P L. et.al.: RA or TPA is administered on days 0, 2, 4, 7 and 9, compound 15 or corticosteroids are administered twice daily on day 7, day 8 and day 9 and once on day 10 in the morning. The mice are sacrificed on day 10 in the afternoon.

c-Jun mRNA expression = experiment: Semi chronic inflammation of mouse ears, c-Jun mRNA (northern blot); type: in vivo, C57BL/6 mice
Procedure: as §1, §3
In the same experiment, the expression of c-Jun mRNA is determined by northern blot and expressed in percent of the vehicle controls.

[2] = tested on: myeloperoxidase (MPO) activity; experiment: Acute inflammation of mouse ears, MPO activity; type: in vivo, C57BL/6 mice; conditions: TPA 0.005% alone, topical, 4 d
Procedure: as §1, §2
The anti-inflammatory effect of topical RXR antagonist compound 15 is tested by determination of myeloperoxidase activity in % of vehicle treated controls. For induction of inflammation 9-cis RA or TPA are applied topically to the skin, daily for 4 days. The RXR antagonist compound 15 (see Table 1) is administered topically one hour after the application of the inflammation inducing agent. The mice are sacrified 24 hours after the last treatment.

RXRγ [3] = target: T1, RXRγ (Homo sapiens, UniProt P48443); experiment: Retinoid binding assay, RXRγ; parameters: made in house; host or cells: E. coli; conditions: [3H] 9-cis retinoic acid 20 nM; read-out: Binding Affinity IC50 RXR γ
T1 sequence (P48443 1-463): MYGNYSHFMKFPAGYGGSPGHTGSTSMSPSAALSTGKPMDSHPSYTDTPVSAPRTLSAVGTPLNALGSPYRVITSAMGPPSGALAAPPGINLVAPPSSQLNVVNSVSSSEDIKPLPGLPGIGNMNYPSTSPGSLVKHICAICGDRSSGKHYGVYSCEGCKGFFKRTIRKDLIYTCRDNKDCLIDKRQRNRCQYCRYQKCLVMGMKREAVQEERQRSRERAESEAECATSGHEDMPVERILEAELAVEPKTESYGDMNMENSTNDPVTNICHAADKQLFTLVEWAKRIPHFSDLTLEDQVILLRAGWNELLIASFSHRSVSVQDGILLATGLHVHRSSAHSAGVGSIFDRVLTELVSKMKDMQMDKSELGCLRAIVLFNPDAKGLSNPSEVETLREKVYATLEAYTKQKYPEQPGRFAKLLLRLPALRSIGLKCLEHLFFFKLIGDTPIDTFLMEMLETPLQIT
Description: (§4) The DEF domains of RAR's and the full length RXR's, expressed in E.coli, are used to measure competitive retinoid binding. […] 9-cis retinoic acid (for RXR's), respectively. […] Separation of bound from free radioactivity is achieved by charcoal/dextran (RAR's) or by desalting columns (RXR's). […] Retinoid Activation Assays

RXRβ = target: T2, RXRβ (Homo sapiens, UniProt P28702); experiment: Retinoid activation assay, RXRβ (Schneider SL-3 cells, luciferase reporter); type: cell-based; conditions: read-out: Activation EC50 RXR β
T2 construct: Full length RXR cDNA is used for transfection; expressed in transfected cells; host or cells: Schneider SL-3 cells (Drosophila)
T2 sequence (P28702 1-533): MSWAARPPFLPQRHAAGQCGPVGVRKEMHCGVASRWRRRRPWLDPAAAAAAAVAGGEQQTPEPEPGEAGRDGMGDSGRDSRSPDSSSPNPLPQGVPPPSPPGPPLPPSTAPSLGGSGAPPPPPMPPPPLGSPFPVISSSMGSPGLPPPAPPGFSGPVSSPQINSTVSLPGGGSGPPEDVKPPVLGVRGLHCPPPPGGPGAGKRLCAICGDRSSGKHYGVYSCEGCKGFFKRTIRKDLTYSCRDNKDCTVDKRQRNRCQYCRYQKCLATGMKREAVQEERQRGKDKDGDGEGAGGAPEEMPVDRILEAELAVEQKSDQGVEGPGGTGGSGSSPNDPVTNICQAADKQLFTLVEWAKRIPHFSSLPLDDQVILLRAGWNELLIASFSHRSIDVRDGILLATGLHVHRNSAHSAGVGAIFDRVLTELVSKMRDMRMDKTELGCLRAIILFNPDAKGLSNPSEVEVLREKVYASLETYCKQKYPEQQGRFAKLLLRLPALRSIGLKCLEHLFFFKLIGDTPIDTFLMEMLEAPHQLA
Procedure: (§5) Full length RXR cDNA is used for transfection. As reporter system, the luciferase gene is used in a construct with three copies of a RXR response element from rat CRBP gene, (formerly RARE from betaRAR gene), fused to alcoholdehydrogenase gene promoter in the plasmid pGL2-basic. Schneider SL-3 cells from Drosophila are transiently transfected 3-4 h before the experiment by the Ca-phosphate-DNA coprecipitation method. […] At the end of the incubation, the cell supernatants are assayed for luciferase activity. Results are given as EC50 (nM), the concentration leading to half-maximal activation.

RXRγ [4] = target: T1, RXRγ; experiment: Retinoid activation assay, RXRγ (Schneider SL-3 cells, luciferase reporter); type: cell-based; conditions: read-out: Activation EC50 RXR γ
Procedure: as §5

RARβ = target: T3, RARβ (Homo sapiens, UniProt P10826); experiment: Retinoid binding assay, RARβ; parameters: The DEF domains of RAR's and the full length RXR's, expressed in E.coli; made in house; host or cells: E. coli; conditions: read-out: Binding Affinity IC50 RAR β
T3 sequence (P10826 183-417 limits assumed): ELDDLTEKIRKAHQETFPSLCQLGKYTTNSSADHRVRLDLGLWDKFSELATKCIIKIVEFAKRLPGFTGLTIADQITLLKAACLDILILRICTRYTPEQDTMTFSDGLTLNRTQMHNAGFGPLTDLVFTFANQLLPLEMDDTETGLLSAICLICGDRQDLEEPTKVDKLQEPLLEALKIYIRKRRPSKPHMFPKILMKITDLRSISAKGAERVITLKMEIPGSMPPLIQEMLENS
Description: as §4

RARα = target: T4, RARα (Homo sapiens, UniProt P10276); experiment: Retinoid binding assay, RARα; parameters: The DEF domains of RAR's and the full length RXR's, expressed in E.coli; made in house; host or cells: E. coli; conditions: read-out: Binding Affinity IC50 RAR α
T4 sequence (P10276 183-417 limits assumed): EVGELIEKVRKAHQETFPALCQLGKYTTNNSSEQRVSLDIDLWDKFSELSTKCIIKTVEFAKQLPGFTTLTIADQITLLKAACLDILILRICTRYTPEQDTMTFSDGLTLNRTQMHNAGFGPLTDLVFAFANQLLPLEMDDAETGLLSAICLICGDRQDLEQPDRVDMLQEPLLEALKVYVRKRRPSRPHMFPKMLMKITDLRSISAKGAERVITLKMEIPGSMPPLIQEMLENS
Description: as §4

RARγ = target: T5, RARγ (Homo sapiens, UniProt P13631); experiment: Retinoid binding assay, RARγ; conditions: read-out: Binding Affinity IC50 RAR γ
T5 construct: The DEF domains of RAR's and the full length RXR's, expressed in E.coli; made in house; host or cells: E. coli
T5 sequence (P13631 185-419 limits assumed): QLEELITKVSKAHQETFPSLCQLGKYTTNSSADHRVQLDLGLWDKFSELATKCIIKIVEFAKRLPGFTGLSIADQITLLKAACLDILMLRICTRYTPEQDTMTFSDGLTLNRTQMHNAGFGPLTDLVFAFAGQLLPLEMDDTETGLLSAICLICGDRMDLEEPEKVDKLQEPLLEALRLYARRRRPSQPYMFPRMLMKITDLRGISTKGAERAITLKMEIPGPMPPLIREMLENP
Description: as §4

humans = conditions: clinical trials by other authors; cited from earlier work
[5] = TPA 0.005% + test compound 0.05%
[6] = TPA 0.005% + test compound 0.05% topical

Compound: CC1=C(/C=C/C(C)=C/C=C/C(C)=C/C(=O)O)C(C)(C)CCC1 [At RA, all-trans retinoic acid]
- MPO activity (% vehicle treated mice) ([1]; At RA 0.05% alone, topical): 1371 ± 345 % vehicle treated mice

Compound: betamethasone propionate
- c-Jun mRNA expression (% of vehicle treated mice) (c-Jun mRNA expression; [5]): 24 % of vehicle treated mice
- MPO activity (% vehicle treated mice) [1, 6]: 257 ± 38 % vehicle treated mice

Compound: CCC(=O)O[C@]1(C(=O)CCl)[C@@H](C)C[C@H]2[C@@H]3CCC4=CC(=O)C=C[C@]4(C)[C@@]3(F)[C@@H](O)C[C@@]21C
- c-Jun mRNA expression (% of vehicle treated mice) (c-Jun mRNA expression; [5]): 43 % of vehicle treated mice
- MPO activity (% vehicle treated mice) [1, 6]: 239 ± 43 % vehicle treated mice

Compound: CCCCCCCCCCCCCC(=O)O[C@@H]1[C@@H](C)[C@@]2(O)[C@@H](C=C(CO)C[C@]3(O)C(=O)C(C)=C[C@@H]23)[C@@H]2C(C)(C)[C@]12OC(C)=O [TPA, 12-O-tetradecanoylphorbol-13-acetate]
- c-Jun mRNA expression (% of vehicle treated mice) (c-Jun mRNA expression; TPA 0.005% alone): 163 % of vehicle treated mice
- MPO activity (% vehicle treated mice) ([1]; TPA 0.005% alone, topical): 572 ± 61 % vehicle treated mice
- MPO activity (% vehicle treated mice) [2]: 376 ± 72 % vehicle treated mice

Compound: CCCOc1cc2c(cc1\C(C)=C/C=C/C(C)=C/C(=O)O)C(C)(C)CCC2(C)C [Compound 23, (2E,4E,6Z)-3-Methyl-7-(5,5,8,8-tetramethyl-3-propoxy-5,6,7,8-tetrahydro-naphthalen-2-yl)-octa-2,4,6-trienoic acid]
- IC50 (RXRγ [3]): 68 nM
- EC50 (RXRβ): > 10 µM
- EC50 (RXRγ [4]): > 10 µM
- IC50 (RARβ): 3.5 µM
- IC50 (RARα): 3.1 µM
- IC50 (RARγ): 2800 nM

Compound: Cc1cc2c(cc1C1(c3ccc(C(=O)O)cn3)CC1)C(C)(C)CCC2(C)C [Compound 3, 6-[1-(3,5,5,8,8-Pentamethyl-5,6,7,8-tetrahydro-naphthalen-2yl)-cyclopropyl]-nicotinic acid, reference compound]
- IC50 (RXRγ [3]): 90 nM
- Serum lipids in clinical trials (humans) (humans): marked triglyceridemia
